Assay [1] deals with 5-HT2Cedited (accession number AAF35842.1) (Homo sapiens, UniProt P28335, I156V/I160V/N158S). In words: biochemical. Type of assay: binding.
In assay [2] the target is human recombinant 5-HT2Cedited receptor (Homo sapiens, UniProt P28335, I156V/I160V/N158S). In words: cell-based.
Chain of human recombinant 5-HT2Cedited receptor (P28335 33-458 I156V/N158S/I160V limits assumed): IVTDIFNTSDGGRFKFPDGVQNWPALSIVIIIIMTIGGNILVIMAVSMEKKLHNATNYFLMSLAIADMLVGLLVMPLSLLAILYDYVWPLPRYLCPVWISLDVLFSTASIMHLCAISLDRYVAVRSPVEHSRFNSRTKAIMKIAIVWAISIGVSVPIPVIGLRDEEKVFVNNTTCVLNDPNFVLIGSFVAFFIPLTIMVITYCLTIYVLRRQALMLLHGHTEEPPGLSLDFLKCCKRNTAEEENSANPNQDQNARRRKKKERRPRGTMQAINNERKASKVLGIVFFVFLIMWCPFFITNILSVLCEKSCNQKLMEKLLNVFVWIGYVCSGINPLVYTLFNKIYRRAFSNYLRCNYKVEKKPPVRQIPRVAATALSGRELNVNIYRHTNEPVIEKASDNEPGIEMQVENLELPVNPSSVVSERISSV

Chain of 5-HT2Cedited (accession number AAF35842.1) (P28335 whole entry I156V/N158S/I160V, looked up): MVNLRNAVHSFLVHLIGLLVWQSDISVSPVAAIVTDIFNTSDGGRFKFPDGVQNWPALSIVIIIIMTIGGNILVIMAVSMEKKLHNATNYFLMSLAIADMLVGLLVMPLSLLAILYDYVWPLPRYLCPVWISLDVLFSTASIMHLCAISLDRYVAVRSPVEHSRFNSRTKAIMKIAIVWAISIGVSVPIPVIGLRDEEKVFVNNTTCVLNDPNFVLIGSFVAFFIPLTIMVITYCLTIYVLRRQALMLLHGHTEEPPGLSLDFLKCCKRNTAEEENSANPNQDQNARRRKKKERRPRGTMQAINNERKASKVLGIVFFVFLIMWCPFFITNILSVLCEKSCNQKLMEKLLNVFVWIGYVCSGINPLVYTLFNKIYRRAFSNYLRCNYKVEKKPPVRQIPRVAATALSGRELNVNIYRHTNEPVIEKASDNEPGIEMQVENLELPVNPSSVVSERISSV

With `C[C@@H](N)Cn1ccc2nc(OCc3ccccc3)ccc21` [Compound 2, (R)-1-(5-(benzyloxy)-1H-pyrrolo[3,2-b]pyridin-1-yl)propan-2-amine], in assay [1], the IC50 is above 10000 nM. For the same compound, the EC50 in assay [2] is above 10000 nM.

Consider `C[C@@H](N)Cn1ccc2cc(OCc3ccc(F)cc3)ccc21` [Compound 5, (R)-1-(5-((4-fluorobenzyl)oxy)-1H-indol-1-yl)propan-2-amine], for which, in assay [1], the IC50 was 101 to 1000 nM. In addition, the EC50 in assay [2] lay in the range of 1000 to 10000 nM.

`CCN(CC)[C@H](C)Cn1ccc2cc(OCc3ccccc3)ccc21` [Compound 11, (R)-1-(5-(benzyloxy)-1H-indol-1-yl)-N,N-diethylpropan-2-amine]: the half-maximal inhibitory concentration (IC50) in assay [1] was 1000 to 10000 nM. Also, in assay [2], the EC50 was above 10000 nM.

On to `C[C@H](Cn1ccc2cc(OCc3ccc(F)cc3)ccc21)N(C)C` [Compound 8, (R)-1-(5-((4-fluorobenzyl)oxy)-1H-indol-1-yl)-N,N-dimethylpropan-2-amine], for which the IC50 in assay [1] was 101 to 1000 nM. The EC50 in assay [2] was above 10000 nM.

`C[C@H](Cn1ccc2cc(OCc3ccccc3)ccc21)N1CCCC1` [Compound 12, (R)-5-(benzyloxy)-1-(2-(pyrrolidin-1-yl)propyl)-1H-indole]: the IC50 in assay [1] lay in the range of 1000 to 10000 nM. Further, the EC50 in assay [2] is above 10000 nM.

In the case of `C[C@H](Cn1ccc2nc(OCc3ccccc3)ccc21)N(C)C` [Compound 1, (R)-1-(5-(benzyloxy)-1H-pyrrolo[3,2-b]pyridin-1-yl)-N,N-dimethylpropan-2-amine], the half-inhibitory concentration (IC50) in assay [1] fell in the range of 1000 to 10000 nM. Moreover, the EC50 in assay [2] is above 10000 nM.

Turning to `C[C@H](Cn1ccc2cc(OCc3ccccc3F)ccc21)N(C)C` [Compound 10, (R)-1-(5-((2-fluorobenzyl)oxy)-1H-indol-1-yl)-N,N-dimethylpropan-2-amine], the IC50 in assay [1] lay within 101 to 1000 nM. The EC50 in assay [2] is above 10000 nM.

As to `C[C@H](Cn1ccc2cc(OCc3ccccc3)ccc21)N(C)C` [Compound 3, (R)-1-(5-(benzyloxy)-1H-indol-1-yl)-N,N-dimethylpropan-2-amine], the half-inhibitory concentration (IC50) in assay [1] is 101 to 1000 nM. Moreover, the 50% effective concentration (EC50) in assay [2] lay in the range of 1000 to 10000 nM.

For the compound `CN[C@H](C)Cn1ccc2cc(OCc3ccccc3)ccc21` [Compound 4, (R)-1-(5-(benzyloxy)-1H-indol-1-yl)-N-methylpropan-2-amine], the half-maximal inhibitory concentration (IC50) in assay [1] was in the range of 1000 to 10000 nM. The EC50 in assay [2] lay in the range of 1000 to 10000 nM.

Compound `C[C@@H](N)Cn1ccc2cc(OCc3ccccc3F)ccc21` [Compound 7, (R)-1-(5-((2-fluorobenzyl)oxy)-1H-indol-1-yl)propan-2-amine] yielded an IC50 in assay [1] of 1000 to 10000 nM. In addition, in assay [2], the concentration giving a half-maximal response (EC50) fell in the range of 1000 to 10000 nM.

In the case of `C[C@@H](N)Cn1ccc2cc(OCc3cccc(F)c3)ccc21` [Compound 6, (R)-1-(5-((3-fluorobenzyl)oxy)-1H-indol-1-yl)propan-2-amine], in assay [1], the concentration for half-maximal inhibition (IC50) fell in the range of 101 to 1000 nM. Further, in assay [2], the 50% effective concentration (EC50) fell in the range of 1000 to 10000 nM.

Turning to `C[C@H](Cn1ccc2cc(OCc3cccc(F)c3)ccc21)N(C)C` [Compound 9, (R)-1-(5-((3-fluorobenzyl)oxy)-1H-indol-1-yl)-N,N-dimethylpropan-2-amine], in assay [1], the 50% inhibitory concentration (IC50) was 101 to 1000 nM. Further, the EC50 in assay [2] was above 10000 nM.

Broadly, the IC50 is the concentration at which inhibition is half-maximal. By EC50 is commonly meant the concentration that produces a half-maximal response.
